Patent US9624758B2, “Use of oligo-quaternary compositions to increase scale inhibitor lifetime in a subterranean formation” (Ecolab USA Inc., priority 2012, dated 2017)
Like-named read-outs stand apart in the source and are kept apart here.

What was measured:
Rat = experiment: Toxicity: LC50 Rat; conditions: in vivo
Procedure: (§1) Product A was evaluated for toxicity using various tests.

[1] = type: cell-based
Procedure: as §1

Microtox = type: cell-based
Procedure: as §1

Biodegradation = experiment: Biodegradation
Procedure: as §1

Algae = experiment: Toxicity: EC50 Algae
Procedure: as §1

[2] = Toxicity: LC50 Fathead Minnow; conditions: in vivo
Procedure: as §1

Daphnia Magna = experiment: Toxicity: EC50 Daphnia Magna; type: in vivo
Procedure: as §1

[3] = Compatibility test of scale inhibitor solutions with Product A solution in synthetic brine; type: physicochemical; parameters: key: C—Clear; P—Precipitate; conditions: for Clarity of Mixed Solutions 10:90: ratio 10:90; for Clarity of Mixed Solutions 50:50: ratio 50:50
Excerpt: Individual solutions (Solutions 1B through 1G) of 10% Product B, C, D, E, F and G, respectively, in a synthetic brine (see the table below showing the synthetic brine composition) were mixed with a 10% solution (Solution 2) of Product A in the synthetic brine. The two sets of solutions were mixed with Solution 2 (i.e., each of Solutions 1B through 1G were mixed with Solution 2) at ratios of 10:90, 30:70, 50:50, 70:30 and 90:10 to indicate that no precipitate would form at any concentration in the mixing concentration range from 10:90 to 90:10. These compatibility screening tests indicate that it is unlikely for any incompatibility to be experienced during deployment and flow back of a squeeze treatment. Any incompatibilities under ambient conditions were observed visually from solution clarity and/or precipitate. The samples were then heated to the test temperature (80° C.) and any further incompatibilities after 2 and 24 hours recorded.

[4] = Coreflood on Bandera outcrop cores; conditions: post versus pre treatment
Procedure: Two corefloods were carried out simultaneously on two Bandera outcrop cores (1.5″ diameter by 3″ length), using a Scaled Solutions dual coreflood apparatus. The composition of these cores is set out in the table below:
Both cores were wrapped with PTFE tape and cased in heat shrink tubing prior to insertion into a Viton sleeve and mounted in a Hassler type core holder with a confining pressure of 1200 psi. Both cores were then flushed with synthetic brine at 1 mL/min for at least 2 hours and until the differential pressure was stable. Brine was flushed at 0.5 mL/min overnight.
Both cores were saturated with synthetic brine under ambient conditions in the forward direction at 1 mL/min for 10 minutes, 2 mL/min for 10 minutes, 3 mL/min for 10 minutes, and 4 mL/min for 2 hours and until the differential pressure was stable. After a stable differential pressure was achieved, the permeability to brine was measured in the forward flow by flooding at 4, 3, 2, 1 mL/min at room temperature.
Brine was then injected into both cores in the forward direction at 1 mL/min until the oven reached a temperature of 80° C. […] Following plug saturation, the permeability of each core to synthetic brine was measured in the forward flow by flooding at 4, 3, 2, and 1 mL/min at 80° C. […]
Both cores were injected with synthetic brine at 2 mL/min with effluent samples being collected. The samples were analyzed by ICP. […]

[5] = 10% scale inhibitor solution : 10% Product A solution in synthetic brine, ambient, then 80° C. 2 and 24 hours
[6] = 10% solutions in synthetic brine, with Product A
[7] = ratio 30:70 (second column), 10% solutions in synthetic brine, with Product A
[8] = ratio printed 30:70 (fourth column), 10% solutions in synthetic brine, with Product A

Row | Compound | LC50 Rat (Rat) | Ames Test [1] | IC50 (Microtox; 5 min, read-out: 5-min IC50 (95% CI)) | IC50 (Microtox; 0.25 h, 15 min, read-out: 15-min IC50 (95% CI)) | Biodegradation (Biodegradation) | EC50 (Algae) | LC50 [2] | EC50 (Daphnia Magna) | Clarity of Mixed Solutions 10:90 [3, 5] | Clarity of Mixed Solutions 10:90 [3, 6] | Clarity of Mixed Solutions 30:70 [3, 7] | Clarity of Mixed Solutions 50:50 [3, 6] | Clarity of Mixed Solutions 30:70 [3, 8] | Permeability Recovery [4]
1 | C[N+](C)(C)CC(O)C[N+](C)(C)C.[Cl-].[Cl-] [Product A, 1,3-propandiaminium, 2-hydroxy-N,N,N,N′,N′,N′-hexamethyl-, dichloride] | 4,000 mg/kg | Non- | > 4000 µg/mL | > 4000 µg/mL | 9% | 1500 µg/mL | > 1000 µg/mL | 186 µg/mL | – | – | – | – | – | –
2 | O=P(O)(O)CN(CCCCCCN(CP(=O)(O)O)CP(=O)(O)O)CCCCCCN(CP(=O)(O)O)CP(=O)(O)O [Product B, BHMT phosphonate] | – | – | – | – | – | – | – | – | C | C | C | C | C | 75%
3 | DETA phosphonate [Product C] | – | – | – | – | – | – | – | – | C | C | C | C | C | –
